# In US20040198811A1 (H. Lundbeck A/S, priority 2001, published 2004):
# Assays:
# Type in all cases: in vivo
# [1] = test system: primary care patients with major depression disorder; test: 8-week, double-blind, randomised, placebo-controlled, flexible-dose clinical study
# Source text: (§1) This has i.a. been found in the Chronic Mild Stress model (Willner P., Psychopharmachology 1997, 134, 319-329).
# A total of 471 patients were randomised into the study. The all-patient-treated set comprised 469 patients and the full-analysis set comprised 468 patients.
# There was an approximately 3 to 1 ratio of women to men in each treatment group, and almost all patients were Caucasian. The mean age was 43 years (SD 11). At baseline, the mean MADRS total score was approximately 29 for the treatment group, which signifies moderate to severely ill patients.
# animal models = test: Chronic Mild Stress model
# Source text: as §1
# [2] = fixed dose studies (MADRS rating scale and Clinical Global Impression); conditions: escitalopram in a dose of 10 mg
# [3] = pharmacological and clinical studies (effect of R-citalopram, potency versus racemate)
# Source text: This may be shown in functional in-vivo pharmacological models and studies of 5-HT-reuptake effect and or in behaviour models, for example depression models.
# [4] = Week 4, last observation carried forward, 10 mg escitalopram, 20 mg citalopram
Molecule,"adjusted mean change in MADRS total score versus placebo [1, 4] [points]","onset of effect ([1]; 10 mg escitalopram, 20 mg citalopram, versus placebo)","therapeutic effect versus placebo on adjusted mean change in MADRS total score ([1]; Week 1 (p=0.023) to Week 4, observed cases)","CGI improvement and severity subscale versus placebo ([1]; Week 4, last observation carried forward)","CGI improvement and severity subscale versus placebo ([1]; from Week 1 onwards, 4-week period, observed cases)",speed of response (animal models),effect as determined by MADRS rating scale and Clinical Global Impression (severity and improvement) [2],potency relative to the racemate ([3]; pharmacological and clinical studies),impact on the effect of escitalopram ([3]; in vivo)
"CN(C)CCCC1(c2ccc(F)cc2)OCc2cc(C#N)ccc21 (racemic) [citalopram, reference compound]",1.5,–,–,–,–,–,–,–,–
"(S)-1-[3-(dimethylamino)propyl]-1-4-fluorophenyl)-1,3-dihydro-5-isobenzofurancarbonitdile [escitalopram]",2.7,showed effects after one week,significantly superior therapeutic effect,statistically significantly superior to placebo,significantly superior to placebo,faster response than citalopram-racemate,at least same effect as citalopram in a dose of 40 mg,substantially more than two times as potent as the racemate,–
"CN(C)CCC[C@]1(c2ccc(F)cc2)OCc2cc(C#N)ccc21 [R-citalopram, reference compound]",–,–,–,–,–,–,–,–,negative impact
